Active and inactive are the calls of the source. The calls are words filed in the database; no cut-off is given here.
How the values were obtained:
[1] = Antitumor activity against human K562 cells xenografted in BALB/cA nude mouse assessed as tumor growth at 150 mg/kg, po qd administered via gavage for 21 days relative to control; format: functional
[2] = Ratio of IC50 for human HL60 cells to IC50 for Bcr-Abl in human K562 cells
[3] = biological target: Bcr/Abl fusion protein (Homo sapiens) (UniProt P00519+P11274); assay: Potency index, ratio of imatinib IC50 to compound IC50 for Bcr-Abl in human K562 cells; format: cell-based
[4] = Cytotoxicity against human HL60 cells assessed as inhibition of cell proliferation after 48 hrs by MTT assay; format: functional, cell-based; settings: HL-60, 48 h
[5] = Antitumor activity against human K562 cells xenografted in BALB/cA nude mouse assessed as tumor growth at 37.5 mg/kg, po qd administered via gavage for 21 days relative to control; format: functional
K562 [6] = assay: Antitumor activity against human K562 cells xenografted in po dosed BALB/cA nude mouse assessed as tumor growth inhibition administered as qd via gavage for 21 days; format: functional, organism-based
K562 [7] = assay: Antitumor activity against human K562 cells xenografted in BALB/cA nude mouse assessed as extinction of tumor at 150 mg/kg, po qd administered via gavage for 21 days; format: functional, organism-based

Sequence of Bcr/Abl fusion protein (Homo sapiens) (P00519 whole entry, looked up, the tested form may be a part): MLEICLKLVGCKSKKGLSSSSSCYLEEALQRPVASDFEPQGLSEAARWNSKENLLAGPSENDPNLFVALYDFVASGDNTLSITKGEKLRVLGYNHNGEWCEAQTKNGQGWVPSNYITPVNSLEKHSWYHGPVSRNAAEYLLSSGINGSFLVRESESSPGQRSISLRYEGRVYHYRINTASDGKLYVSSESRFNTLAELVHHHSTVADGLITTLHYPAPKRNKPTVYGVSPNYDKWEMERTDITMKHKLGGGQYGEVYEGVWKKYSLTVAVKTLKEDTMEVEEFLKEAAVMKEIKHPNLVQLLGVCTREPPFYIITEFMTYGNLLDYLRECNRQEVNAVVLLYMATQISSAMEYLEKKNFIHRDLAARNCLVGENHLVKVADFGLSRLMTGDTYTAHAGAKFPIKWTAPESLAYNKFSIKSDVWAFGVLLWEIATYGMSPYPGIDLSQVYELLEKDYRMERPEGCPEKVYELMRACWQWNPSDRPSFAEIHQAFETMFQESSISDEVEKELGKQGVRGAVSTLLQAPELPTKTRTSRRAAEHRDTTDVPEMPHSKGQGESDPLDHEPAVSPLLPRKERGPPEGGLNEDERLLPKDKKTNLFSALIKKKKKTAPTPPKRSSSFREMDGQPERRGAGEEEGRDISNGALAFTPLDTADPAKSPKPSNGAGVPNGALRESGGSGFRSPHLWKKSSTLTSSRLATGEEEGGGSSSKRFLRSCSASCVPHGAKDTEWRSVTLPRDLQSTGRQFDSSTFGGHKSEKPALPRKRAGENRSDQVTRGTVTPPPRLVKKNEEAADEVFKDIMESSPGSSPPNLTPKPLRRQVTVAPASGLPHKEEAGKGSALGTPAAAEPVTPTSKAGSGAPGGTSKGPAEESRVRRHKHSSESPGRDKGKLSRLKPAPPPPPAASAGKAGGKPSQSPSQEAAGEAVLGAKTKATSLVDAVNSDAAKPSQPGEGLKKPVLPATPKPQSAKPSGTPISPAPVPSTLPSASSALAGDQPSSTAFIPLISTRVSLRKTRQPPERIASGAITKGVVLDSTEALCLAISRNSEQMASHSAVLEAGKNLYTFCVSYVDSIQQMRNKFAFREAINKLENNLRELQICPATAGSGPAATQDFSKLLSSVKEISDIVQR
Sequence of Bcr/Abl fusion protein (Homo sapiens) (P11274 whole entry, looked up, the tested form may be a part): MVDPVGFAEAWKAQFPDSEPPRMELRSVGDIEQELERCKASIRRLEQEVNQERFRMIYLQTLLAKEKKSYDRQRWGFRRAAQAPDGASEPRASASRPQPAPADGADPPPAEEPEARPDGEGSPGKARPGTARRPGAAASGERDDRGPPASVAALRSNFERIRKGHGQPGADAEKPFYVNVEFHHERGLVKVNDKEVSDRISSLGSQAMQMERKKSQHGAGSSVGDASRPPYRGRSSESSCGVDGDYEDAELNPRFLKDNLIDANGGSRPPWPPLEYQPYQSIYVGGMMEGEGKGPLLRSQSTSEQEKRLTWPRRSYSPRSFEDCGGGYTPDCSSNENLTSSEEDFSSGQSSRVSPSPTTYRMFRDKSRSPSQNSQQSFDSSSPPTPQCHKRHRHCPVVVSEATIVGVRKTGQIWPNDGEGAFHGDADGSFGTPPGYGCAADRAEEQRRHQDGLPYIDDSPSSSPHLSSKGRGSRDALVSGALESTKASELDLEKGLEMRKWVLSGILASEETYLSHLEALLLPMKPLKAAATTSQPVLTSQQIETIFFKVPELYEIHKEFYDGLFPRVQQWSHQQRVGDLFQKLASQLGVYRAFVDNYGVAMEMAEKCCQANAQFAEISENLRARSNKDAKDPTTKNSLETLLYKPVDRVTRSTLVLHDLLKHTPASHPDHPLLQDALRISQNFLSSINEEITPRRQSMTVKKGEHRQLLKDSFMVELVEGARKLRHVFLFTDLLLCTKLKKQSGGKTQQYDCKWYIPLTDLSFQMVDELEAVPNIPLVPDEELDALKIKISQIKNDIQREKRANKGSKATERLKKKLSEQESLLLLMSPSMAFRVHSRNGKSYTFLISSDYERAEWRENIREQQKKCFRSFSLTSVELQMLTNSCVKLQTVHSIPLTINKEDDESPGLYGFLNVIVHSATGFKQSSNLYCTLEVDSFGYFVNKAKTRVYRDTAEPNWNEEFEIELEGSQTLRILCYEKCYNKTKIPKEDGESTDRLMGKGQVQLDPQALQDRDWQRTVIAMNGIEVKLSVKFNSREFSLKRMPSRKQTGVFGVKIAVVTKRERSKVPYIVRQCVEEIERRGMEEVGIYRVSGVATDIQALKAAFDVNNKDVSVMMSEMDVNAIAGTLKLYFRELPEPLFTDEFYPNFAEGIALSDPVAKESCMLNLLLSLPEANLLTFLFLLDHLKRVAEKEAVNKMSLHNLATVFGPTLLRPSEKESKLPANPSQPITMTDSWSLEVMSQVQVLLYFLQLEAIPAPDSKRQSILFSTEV

Ratio IC50 [3]	Structure (SMILES)	T/C [1]	Ratio IC50 [2]	IC50 [4] [µM]	T/C [5] [%]	TGI (K562 [6])	Activity (K562 [7])
–	CS(=O)(=O)O.Cc1ccc(NC(=O)c2ccc(CN3CCN(C)CC3)cc2)cc1Nc1nccc(-c2cccnc2)n1 [IMATINIB MESYLATE]	34.2 - 117.7%	–	–	–	–	–
4	CS(=O)(=O)O.Cc1ncc(NC(=O)c2ccc(CN3CCN(C)CC3)c(Cl)c2)cc1Nc1nccc(-c2cccnc2)n1	47.4%	125	–	–	–	–
–	CS(=O)(=O)O.Cc1ncc(NC(=O)c2ccc(CN3CCN(C)CC3)c(C(F)(F)F)c2)cc1Nc1nccc(-c2cccnc2)n1	0%	–	10	40.4	Dose-dependent effect	Active

From ChEMBL document CHEMBL3880429, “Aminopyrimidine compounds and their salts, process for preparation and pharmaceutical use thereof” (2012)
